US20180319810A1, “SUBSTITUTED BRIDGED UREA ANALOGS AS SIRTUIN MODULATORS” (GlaxoSmithKline Intellectual Property (No.2) Limited, priority 2014, published 2018)

Each compound was assayed against T1, SIRT1 (Homo sapiens, UniProt Q96EB6) (assay: Trp mass spectrometry assay of SIRT1 activation). Conditions: Trp peptide Ac-R-H-K-K(Ac)-W-NH2 0.5 μM, 120 μM βNAD+, 10 nM SIRT1, 25 min, 25° C.
T1 sequence (Q96EB6 1-747): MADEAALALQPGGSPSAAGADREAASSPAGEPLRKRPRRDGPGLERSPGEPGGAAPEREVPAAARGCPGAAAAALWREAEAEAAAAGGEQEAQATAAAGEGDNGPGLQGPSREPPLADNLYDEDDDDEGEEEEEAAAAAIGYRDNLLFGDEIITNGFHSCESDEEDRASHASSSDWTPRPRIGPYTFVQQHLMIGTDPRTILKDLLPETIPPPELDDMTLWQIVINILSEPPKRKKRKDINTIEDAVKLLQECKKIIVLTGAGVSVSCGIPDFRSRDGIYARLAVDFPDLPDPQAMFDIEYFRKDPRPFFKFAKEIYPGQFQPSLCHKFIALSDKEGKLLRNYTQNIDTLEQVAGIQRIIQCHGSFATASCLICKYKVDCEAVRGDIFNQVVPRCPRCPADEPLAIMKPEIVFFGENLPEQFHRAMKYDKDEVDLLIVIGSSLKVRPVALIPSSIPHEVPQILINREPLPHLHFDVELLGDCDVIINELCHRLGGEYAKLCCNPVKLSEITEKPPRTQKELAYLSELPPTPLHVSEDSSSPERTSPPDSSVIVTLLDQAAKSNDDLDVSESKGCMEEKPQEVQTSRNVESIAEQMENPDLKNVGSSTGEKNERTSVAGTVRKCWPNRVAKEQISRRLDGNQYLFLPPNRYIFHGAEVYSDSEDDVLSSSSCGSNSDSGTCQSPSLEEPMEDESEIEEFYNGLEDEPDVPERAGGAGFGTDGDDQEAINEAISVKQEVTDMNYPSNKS
Format: biochemical
From the text: Mass spectrometry based assays were used to identify modulators of SIRT1 activity. […] The peptide was labeled with the fluorophore 5TMR (excitation 540 nm/emission 580 nm) at the C-terminus. The sequence of the peptide substrate was based on p53 with several modifications. In addition, the methionine residue naturally present in the sequence was replaced with the norleucine because the methionine may be susceptible to oxidation during synthesis and purification.
The Trp mass spectrometry assay was conducted as follows. […] The SIRT1 protein was obtained by cloning the SirT1 gene into a T7-promoter containing vector, which was then expressed in BL21(DE3) bacterial cells and purified as described in further detail below. Test compound was added at varying concentrations to this reaction mixture and the resulting reactions were monitored. After the 25 minute incubation with SIRT1, 10 μL of 10% formic acid was added to stop the reaction. The resulting reactions were sealed and frozen for later mass spec analysis. The relative SIRT1 activity was then determined by measuring the amount of O-acetyl-ADP-ribose (OAADPR) formed (or, alternatively, the amount of deacetylated Trp peptide generated) by the NAD-dependent sirtuin deacetylation reaction in the presence of varying concentrations of the test compound versus control reactions lacking the test compound.
The degree to which the test agent activated deacetylation by SIRT1 was expressed as EC1.5 (i.e., the concentration of compound required to increase SIRT1 activity by 50% over the control lacking test compound), and Percent Maximum Activation (i.e., the maximum activity relative to control (100%) obtained for the test compound).
This time point was the same as that used for test compounds and, within the linear range, the endpoint represents a change in velocity.
For the above assay, SIRT1 protein was expressed and purified as follows. The SirT1 gene was cloned into a T7-promoter containing vector and transformed into BL21(DE3). The protein was expressed by induction with 1 mM IPTG as an N-terminal His-tag fusion protein at 18° C. overnight and harvested at 30,000×g. Cells were lysed with lysozyme in lysis buffer (50 mM Tris-HCl, 2 mM Tris[2-carboxyethyl]phosphine (TCEP), 10 μM ZnCl2, 200 mM NaCl) and further treated with sonication for 10 min for complete lysis. The protein was purified over a Ni-NTA column (Amersham) and fractions containing pure protein were pooled, concentrated and run over a sizing column (Sephadex S200 26/60 global). The peak containing soluble protein was collected and run on an Ion-exchange column (MonoQ). Gradient elution (200 mM-500 mM NaCl) yielded pure protein. This protein was concentrated and dialyzed against dialysis buffer (20 mM Tris-HCl, 2 mM TCEP) overnight. The protein was aliquoted and frozen at −80° C. until further use.
“NT” means not tested; “ND” means not determinable.

| Structure (SMILES) | TRP Activity (EC1.5, concentration of compound required to increase SIRT1 activity by 50% over control) | TRP MAX RESP (percent maximum fold activation relative to control) |
| --- | --- | --- |
| O=C(Nc1cccc(OC[C@@H](O)CO)n1)N1c2nc(-c3cccc(C(F)(F)F)c3)ncc2N2CC[C@H]1C2 [Example 31, (8S)—N-(6-((S)-2,3-dihydroxypropoxy)pyridin-2-yl)-2-(3-(trifluoromethyl)phenyl)-7,8-dihydro-5,8-methanopyrimido[4,5-b][1,4]diazepine-9(6H)-carboxamide] | A (EC1.5<1 μM) | A (Fold activation ≥150%) |
| O=C(Nc1ccnc(OC[C@@H](O)CO)c1)N1c2nc(-c3cccc(C(F)(F)F)c3)ncc2N2CC[C@H]1C2 [Example 32, (8S)—N-(2-((S)-2,3-dihydroxypropoxy)pyridin-4-yl)-2-(3-(trifluoromethyl)phenyl)-7,8-dihydro-5,8-methanopyrimido[4,5-b][1,4]diazepine-9(6H)-carboxamide] | A (EC1.5<1 μM) | A (Fold activation ≥150%) |
| O=C(Nc1cc(OC[C@H](O)CO)ccn1)N1c2nc(-c3cccc(C(F)(F)F)c3)ncc2N2CC[C@H]1C2 [Example 33, (8S)—N-(4-((R)-2,3-dihydroxypropoxy)pyridin-2-yl)-2-(3-(trifluoromethyl)phenyl)-7,8-dihydro-5,8-methanopyrimido[4,5-b][1,4]diazepine-9(6H)-carboxamide] | B (EC1.5 1-25 μM) | A (Fold activation ≥150%) |
| Cl.O=C(Nc1ccnc(OC[C@H](O)CO)c1)N1c2nc(-c3cccc(C(F)(F)F)c3)ncc2N2CC[C@H]1C2 [Example 34, (8S)—N-(2-((R)-2,3-dihydroxypropoxy)pyridin-4-yl)-2-(3-(trifluoromethyl)phenyl)-7,8-dihydro-5,8-methanopyrimido[4,5-b][1,4]diazepine-9(6H)-carboxamide hydrochloride] | A (EC1.5<1 μM) | A (Fold activation ≥150%) |
| O=C(Nc1cncc(OC[C@H](O)CO)c1)N1c2nc(-c3cccc(C(F)(F)F)c3)ncc2N2CC[C@H]1C2 [Example 35, (8S)—N-(5-((R)-2,3-dihydroxypropoxy)pyridin-3-yl)-2-(3-(trifluoromethyl)phenyl)-7,8-dihydro-5,8-methanopyrimido[4,5-b][1,4]diazepine-9(6H)-carboxamide] | B (EC1.5 1-25 μM) | A (Fold activation ≥150%) |
| O=C(Nc1cc(OC[C@@H](O)CO)ccn1)N1c2nc(-c3cccc(C(F)(F)F)c3)ncc2N2CC[C@H]1C2 [Example 36, (8S)—N-(4-((S)-2,3-dihydroxypropoxy)pyridin-2-yl)-2-(3-(trifluoromethyl)phenyl)-7,8-dihydro-5,8-methanopyrimido[4,5-b][1,4]diazepine-9(6H)-carboxamide] | B (EC1.5 1-25 μM) | A (Fold activation ≥150%) |
| O=C(Nc1cncc(OC[C@H](O)CO)n1)N1c2nc(-c3cccc(C(F)(F)F)c3)ncc2N2CC[C@H]1C2 [Example 37, (8S)—N-(6-((R)-2,3-dihydroxypropoxy)pyrazin-2-yl)-2-(3-(trifluoromethyl)phenyl)-7,8-dihydro-5,8-methanopyrimido[4,5-b][1,4]diazepine-9(6H)-carboxamide] | B (EC1.5 1-25 μM) | A (Fold activation ≥150%) |
| O=C(Nc1ccc(OC[C@@H](O)CO)nc1)N1c2nc(-c3cccc(C(F)(F)F)c3)ncc2N2CC[C@H]1C2 [Example 38, (8S)—N-(6-((S)-2,3-dihydroxypropoxy)pyridin-3-yl)-2-(3-(trifluoromethyl)phenyl)-7,8-dihydro-5,8-methanopyrimido[4,5-b][1,4]diazepine-9(6H)-carboxamide] | A (EC1.5<1 μM) | A (Fold activation ≥150%) |
| O=C(Nc1ccc(OC[C@H](O)CO)nc1)N1c2nc(-c3cccc(C(F)(F)F)c3)ncc2N2CC[C@H]1C2 [Example 39, (8S)—N-(6-((R)-2,3-dihydroxypropoxy)pyridin-3-yl)-2-(3-(trifluoromethyl)phenyl)-7,8-dihydro-5,8-methanopyrimido[4,5-b][1,4]diazepine-9(6H)-carboxamide] | A (EC1.5<1 μM) | A (Fold activation ≥150%) |
| O=C(Nc1ccc(OC[C@H](O)CO)cn1)N1c2nc(-c3cccc(C(F)(F)F)c3)ncc2N2CC[C@H]1C2 [Example 40, (8S)—N-(5-((R)-2,3-dihydroxypropoxy)pyridin-2-yl)-2-(3-(trifluoromethyl)phenyl)-7,8-dihydro-5,8-methanopyrimido[4,5-b][1,4]diazepine-9(6H)-carboxamide] | A (EC1.5<1 μM) | A (Fold activation ≥150%) |
| O=C(Nc1ncc(OC[C@H](O)CO)cn1)N1c2nc(-c3cccc(C(F)(F)F)c3)ncc2N2CC[C@H]1C2 [Example 41, (8S)—N-(5-((R)-2,3-dihydroxypropoxy)pyrimidin-2-yl)-2-(3-(trifluoromethyl)phenyl)-7,8-dihydro-5,8-methanopyrimido[4,5-b][1,4]diazepine-9(6H)-carboxamide] | B (EC1.5 1-25 μM) | A (Fold activation ≥150%) |
| O=C(Nc1ccc(OC[C@@H](O)CO)cn1)N1c2nc(-c3cccc(C(F)(F)F)c3)ncc2N2CC[C@H]1C2 [Example 42, (8S)—N-(5-((S)-2,3-dihydroxypropoxy)pyridin-2-yl)-2-(3-(trifluoromethyl)phenyl)-7,8-dihydro-5,8-methanopyrimido[4,5-b][1,4]diazepine-9(6H)-carboxamide] | B (EC1.5 1-25 μM) | A (Fold activation ≥150%) |
| O=C(Nc1ncc(OC[C@@H](O)CO)cn1)N1c2nc(-c3cccc(C(F)(F)F)c3)ncc2N2CC[C@H]1C2 [Example 43, (8S)—N-(5-((S)-2,3-dihydroxypropoxy)pyrimidin-2-yl)-2-(3-(trifluoromethyl)phenyl)-7,8-dihydro-5,8-methanopyrimido[4,5-b][1,4]diazepine-9(6H)-carboxamide] | B (EC1.5 1-25 μM) | A (Fold activation ≥150%) |
| O=C(Nc1cnnc(OC[C@H](O)CO)c1)N1c2nc(-c3cccc(C(F)(F)F)c3)ncc2N2CC[C@H]1C2 [Example 44, (8S)—N-(6-((R)-2,3-dihydroxypropoxy)pyridazin-4-yl)-2-(3-(trifluoromethyl)phenyl)-7,8-dihydro-5,8-methanopyrimido[4,5-b][1,4]diazepine-9(6H)-carboxamide] | B (EC1.5 1-25 μM) | A (Fold activation ≥150%) |
